Six compounds from patent US7618989B2, “Tricyclic oxazolidone derivatives useful as PR modulators” (Wyeth, priority 2006, dated 2009) can be followed below.

The subject of data set [1] is alkaline phosphatase activity in T47D cells. The data set is described as follows: Effects of progestins and antiprogestins on alkaline phosphatase activity in T47D cells. The data set is classed as cell-based. To be noted: Homo sapiens, antagonist mode, in the presence of 1 nM progesterone, 24 h incubation, read-out: T47D Alkaline Phosphatase Activity IC50 (nM) or % inhibition. The method, then:
(1) Effects of Progestins and Antiprogestins on Alkaline Phosphatase Activity in T47D Cells.
• PURPOSE: To identify progestins or antiprogestins by determining a compound's effect on alkaline phosphatase activity in T47D cells. A. Reagents:
Culture medium: • DMEM:F12 (1:1) (GIBCO, BRL) supplemented with 5% (v/v) charcoal stripped fetal bovine serum (not heat-inactivated), 100 U/mL penicillin, 100 μg/mL streptomycin, and 2 mM the GlutaMax™ reagent (GIBCO, BRL).
Alkaline phosphatase assay buffer: • I. 0.1M Tris-HCl, pH 9.8, containing 0.2% the Triton® X-100 reagent • II. 0.1M Tris-HCl, pH 9.8, containing 4 mM p-nitrophenyl phosphate (Sigma). B. Cell Culture and Treatment:
Frozen T47D cells were thawed in a 37° C. water bath and diluted to 280,000 cells/mL in culture medium. To each well in a 96-well plate (Falcon, Becton Dickinson Labware), 180 μL of diluted cell suspension was added.
Twenty μL of reference or test compounds diluted in the culture medium was then added to each well. When testing for progestin antagonist activity, reference antiprogestins or test compounds were added in the presence of 1 nM progesterone. The cells were incubated at 37° C. in a 5% CO2/humidified atmosphere for 24 h.
NOTE: For high throughput screening, one concentration of each compound was tested at 0.3 μg/mL. Based on an average molecular weight of 300 g/mol for the compounds in the library, the concentration was approximately 1 μM. Subsequently, active compounds were tested in dose response assays to determine EC50 and IC50. C. Alkaline Phosphatase Enzyme Assay:
At the end of treatment, the medium was removed from the plate. Fifty μL of assay buffer I was added to each well. […]
For reference and test compounds, a dose response curve was generated for dose (X-axis) vs. the rate of enzyme reaction (slope) (Y-axis). […] EC50 or IC50 values were calculated from the retransformed values. […]
Progesterone and trimegestone were reference progestins and RU486 was the reference antiprogestin. All reference compounds were run in full dose response curves and the EC50 and IC50 values were calculated.

For the compound `CCC1(CC)COC(=O)N1c1nc2c(s1)CCc1cc(C#N)ccc1-2` [Example 5, 2-(4,4-Diethyl-2-oxo-1,3-oxazolidin-3-yl)-4,5-dihydronaphtho[1,2-d][1,3]thiazole-7-carbonitrile], in data set [1], the IC50 came to 5 nM.
Still for that read-out and setting: the figure for `CC1(C)COC(=O)N1c1nc2c(ccc3cc(C#N)ccc32)s1` [Example 7, 2-(4,4-Dimethyl-2-oxo-1,3-oxazolidin-3-yl)naphtho[1,2-d][1,3]thiazole-7carbonitrile] is 100 nM.
As to `C[C@@H]1COC(=O)N1c1nc(-c2ccc(Br)cc2)cs1` [Example 1, (4R)-3-[4-(4-Bromophenyl)-1,3-thiazol-2-yl]-4-methyl-1,3-oxazolidin-2-one], the melting point is 197 to 199 °C.
The same measure, in the same setting: the figure for `CC1(C)COC(=O)N1c1nc(-c2cccc(C#N)c2)cs1` [Example 3, 3-[2-(4,4-dimethyl-2-oxo-1,3-oxazolidin-3-yl)-1,3-thiazol-4-yl]benzonitrile] is 181 to 183 °C; for `CCC1(CC)COC(=O)N1c1nc(-c2ccc(C#N)cc2)cs1` [Example 2, 4-[2-(4,4-Diethyl-2-oxo-1,3-oxazolidin-3-yl)-1,3-thiazol-4-yl]benzonitrile] it is 145 to 147 °C.
For `CC1(C)COC(=O)N1c1nc2c(s1)CCc1cc(C#N)ccc1-2` [Example 6, 2-(4,4-Dimethyl-2-oxo-1,3-oxazolidin-3-yl)-4,5-dihydronaphtho[1,2-d][1,3]thiazole-7-carbonitrile], in data set [1], the IC50 turned out to be 27.9 nM.

A word on the IC50: it is the concentration that inhibits the measured activity by half. A word on the melting point: it is the temperature, or range, at which the solid turns liquid.
